Measurements taken from patent US10745382B2 (BRISTOL-MYERS SQUIBB COMPANY, priority 2015, dated 2020).
Where two headings read alike, the source gives them in different places.

Molecular target: T1, PD-1/PD-L1 (Homo sapiens, UniProt Q9NZQ7)
T1 construct: made in house; host or cells: HEK293T
Test: PD-1/PD-L1 Homogenous Time-Resolved Fluorescence (HTRF) binding assay
Details: PD-L1-His 10 nM, PD-1-Ig 20 nM, read-out: Range or IC50
In short: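 Binding measured in dPBS with 0.1% BSA and 0.05% Tween-20, detected by HTRF with europium cryptate anti-Ig (1 nM final) and APC anti-His (20 nM final) added over the binding reaction. Counter-assays used human PD-1-Ig/PD-L2-His (20 and 5 nM) and CD80-His/PD-L1-Ig (100 and 10 nM).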

T1 sequence (Q9NZQ7 with tags, fused parts or gaps): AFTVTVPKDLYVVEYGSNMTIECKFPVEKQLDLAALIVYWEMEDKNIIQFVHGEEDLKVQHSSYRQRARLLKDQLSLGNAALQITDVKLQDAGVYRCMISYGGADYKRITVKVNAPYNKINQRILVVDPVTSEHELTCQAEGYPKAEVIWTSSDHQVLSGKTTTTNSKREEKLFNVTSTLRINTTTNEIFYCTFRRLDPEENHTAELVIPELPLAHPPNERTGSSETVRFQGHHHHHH

Row | Compound | IC50 (value given as range class) [nM] | IC50 (numeric IC50) [nM]
1 | Cc1c(COc2cc(OCc3cncc(C#N)c3)c(CN3CCCC[C@H]3C(=O)O)cc2Cl)cccc1-c1cccc(OCCCN2CC3CC2CO3)c1C (stereo partly drawn) [Example 2249, (2S)-1-(4-((3′-(3-(2-oxa-5-azabicyclo[2.2.1]heptan-5-yl)propoxy)-2,2′-dimethylbiphenyl-3-yl)methoxy)-5-chloro-2-((5-cyanopyridin-3-yl)methoxy)benzyl)piperidine-2-carboxylic Acid] | 0.21 to 10 | 
2 | CC(=O)N[C@@H]1CCN(CCCOc2cccc(-c3cccc(COc4cc(OCc5cncc(C#N)c5)c(CN5CCCC[C@H]5C(=O)O)cc4Cl)c3C)c2C)C1 [Example 2250, (2S)-1-(4-((3′-(3-((R)-3-acetamidopyrrolidin-1-yl)propoxy)-2,2′-dimethylbiphenyl-3-yl)methoxy)-5-chloro-2-((5-cyanopyridin-3-yl)methoxy)benzyl)piperidine-2-carboxylic Acid] | 0.21 to 10 | 
3 | Cc1c(COc2cc(OCc3cncc(C#N)c3)c(CN3CCCC[C@H]3C(=O)O)cc2Cl)cccc1-c1cccc(OCCCN2CCCCC2CC(=O)O)c1C (stereo partly drawn) [Example 2251, (2S)-1-(4-((3′-(3-(2-(carboxymethyl)piperidin-1-yl)propoxy)-2,2′-dimethylbiphenyl-3-yl)methoxy)-5-chloro-2-((5-cyanopyridin-3-yl)methoxy)benzyl)piperidine-2-carboxylic Acid] | 0.21 to 10 | 
4 | CO[C@@H]1CCN(CCCOc2cccc(-c3cccc(COc4cc(OCc5cncc(C#N)c5)c(CN5CCCC[C@H]5C(=O)O)cc4Cl)c3C)c2C)C1 [Example 2252, (2S)-1-(5-chloro-2-((5-cyanopyridin-3-yl)methoxy)-4-((3′-(3-((R)-3-methoxypyrrolidin-1-yl)propoxy)-2,2′-dimethylbiphenyl-3-yl)methoxy)benzyl)piperidine-2-carboxylic Acid] | 0.21 to 10 | 
5 | Cc1c(COc2cc(OCc3cncc(C#N)c3)c(CN3CCCC[C@H]3C(=O)O)cc2Cl)cccc1-c1cccc(OCCCN(C)C)c1C [Example 2253, (2S)-1-(5-chloro-2-((5-cyanopyridin-3-yl)methoxy)-4-((3′-(3-(dimethylamino)propoxy)-2,2′-dimethylbiphenyl-3-yl)methoxy)benzyl)piperidine-2-carboxylic Acid] |  | 5.3
6 | Cc1c(COc2cc(OCc3cncc(C#N)c3)c(CN(C)CC(O)CO)cc2Cl)cccc1-c1cccc(OCCCN(C)CC(O)CO)c1C (stereo not drawn) [Example 2254, 5-((4-chloro-2-(((2,3-dihydroxypropyl)(methyl)amino)methyl)-5-((3-(3-((2,3-dihydroxypropyl) (methyl)amino)propoxy)-2,2′-dimethylbiphenyl-3-yl)methoxy)phenoxy)methyl)nicotinonitrile] | 0.21 to 10 | 
7 | Cc1c(COc2cc(OCc3cncc(C#N)c3)c(CN3CCCC(CO)C3)cc2Cl)cccc1-c1cccc(OCCCN2CCCC(CO)C2)c1C (stereo not drawn) [Example 2255, 5-((4-chloro-2-((3-(hydroxymethyl)piperidin-1-yl)methyl)-5-((3′-(3-(3-(hydroxymethyl)piperidin-1-yl)propoxy)-2,2′-dimethylbiphenyl-3-yl)methoxy)phenoxy)methyl)nicotinonitrile] | 0.21 to 10 | 
8 | Cc1c(COc2cc(OCc3cncc(C#N)c3)c(CN3CCCCC3CO)cc2Cl)cccc1-c1cccc(OCCCN2CCCCC2CO)c1C (stereo not drawn) [Example 2256, 5-((4-chloro-2-((2-(hydroxymethyl)piperidin-1-yl)methyl)-5-((3′-(3-(2-(hydroxymethyl)piperidin-1-yl)propoxy)-2,2′-dimethylbiphenyl-3-yl)methoxy)phenoxy)methyl)nicotinonitrile] | 0.21 to 10 | 
9 | Cc1c(COc2cc(OCc3cncc(C#N)c3)c(CN3CC[C@H](CO)[C@H](O)C3)cc2Cl)cccc1-c1cccc(OCCCN2CC[C@H](CO)[C@H](O)C2)c1C [Example 2257, 5-((4-chloro-2-(((3S,4R)-3-hydroxy-4-(hydroxymethyl)piperidin-1-yl)methyl)-5-((3′-(3-((3S,4R)-3-hydroxy-4-(hydroxymethyl)piperidin-1-yl)propoxy)-2,2′-dimethylbiphenyl-3-yl)methoxy)phenoxy)methyl)nicotinonitrile] | 0.21 to 10 | 
10 | Cc1c(COc2cc(OCc3cncc(C#N)c3)c(CN3CCN(CCO)CC3)cc2Cl)cccc1-c1cccc(OCCCN2CCN(CCO)CC2)c1C [Example 2258, 5-((4-chloro-2-((4-(2-hydroxyethyl)piperazin-1-yl)methyl)-5-((3′-(3-(4-(2-hydroxyethyl)piperazin-1-yl)propoxy)-2,2′-dimethylbiphenyl-3-yl)methoxy)phenoxy)methyl)nicotinonitrile] | 0.21 to 10 | 
11 | Cc1c(COc2cc(OCc3cncc(C#N)c3)c(CN3CCC[C@H](C(=O)O)C3)cc2Cl)cccc1-c1cccc(OCCCN2CCC[C@H](C(=O)O)C2)c1C [Example 2259, (3S)-1-(3-(3′-((4-(((S)-3-carboxypiperidin-1-yl)methyl)-2-chloro-5-((5-cyanopyridin-3-yl)methoxy)phenoxy)methyl)-2,2′-dimethylbiphenyl-3-yloxy)propyl)piperidine-3-carboxylic Acid] | 0.21 to 10 | 
12 | Cc1c(COc2cc(OCc3cncc(C#N)c3)c(CN[C@@](C)(CO)C(=O)O)cc2Cl)cccc1-c1cccc(OCCCN2CCCC(CO)C2)c1C (stereo partly drawn) [Example 2260, (2S)-2-(5-chloro-2-((5-cyanopyridin-3-yl)methoxy)-4-((3′-(3-(3-(hydroxymethyl)piperidin-1-yl)propoxy)-2,2′-dimethylbiphenyl-3-yl)methoxy)benzylamino)-3-hydroxy-2-methylpropanoic Acid] | 0.21 to 10 | 
13 | Cc1c(COc2cc(OCc3cncc(C#N)c3)c(CN[C@@](C)(CO)C(=O)O)cc2Cl)cccc1-c1cccc(OCCCN2CC[C@H](CO)[C@H](O)C2)c1C [Example 2261, (2S)-2-(5-chloro-2-((5-cyanopyridin-3-yl)methoxy)-4-((3′-(3-((3 S,4R)-3-hydroxy-4-(hydroxymethyl)piperidin-1-yl)propoxy)-2,2′-dimethylbiphenyl-3-yl)methoxy)benzylamino)-3-hydroxy-2-methylpropanoic Acid] | 0.21 to 10 | 
14 | Cc1c(COc2cc(OCc3cncc(C#N)c3)c(CN[C@@](C)(CO)C(=O)O)cc2Cl)cccc1-c1cccc(OCCCN2CCC[C@H](O)C2)c1C [Example 2262, (2S)-2-(5-chloro-2-((5-cyanopyridin-3-yl)methoxy)-4-((3′-(3-((S)-3-hydroxypiperidin-1-yl)propoxy)-2,2′-dimethylbiphenyl-3-yl)methoxy)benzylamino)-3-hydroxy-2-methylpropanoic Acid] | 0.21 to 10 | 
15 | Cc1c(COc2cc(OCc3cncc(C#N)c3)c(CN[C@@](C)(CO)C(=O)O)cc2Cl)cccc1-c1cccc(OCCCN2CCN(CCO)CC2)c1C [Example 2263, (2S)-2-(5-chloro-2-((5-cyanopyridin-3-yl)methoxy)-4-((3′-(3-(4-(2-hydroxyethyl)piperazin-1-yl)propoxy)-2,2′-dimethylbiphenyl-3-yl)methoxy)benzylamino)-3-hydroxy-2-methylpropanoic Acid] | 0.21 to 10 | 
16 | Cc1c(COc2cc(OCc3cncc(C#N)c3)c(CN[C@@](C)(CO)C(=O)O)cc2Cl)cccc1-c1cccc(OCCCN2CCC[C@H](C(=O)O)C2)c1C [Example 2264, (3S)-1-(3-(3′-((4-(((S)-2-carboxy-1-hydroxypropan-2-ylamino)methyl)-2-chloro-5-((5-cyanopyridin-3-yl)methoxy)phenoxy)methyl)-2,2′-dimethylbiphenyl-3-yloxy)propyl)piperidine-3-carboxylic Acid] | 0.21 to 10 | 
17 | Cc1c(COc2cc(OCc3cncc(C#N)c3)c(CNC[C@H](O)CO)cc2Cl)cccc1-c1cccc(OCCCNC[C@H](O)CO)c1C [Example 2265, 5-((4-chloro-2-(((S)-2,3-dihydroxypropylamino)methyl)-5-((3′-(3-((S)-2,3-dihydroxypropylamino)propoxy)-2,2′-dimethylbiphenyl-3-yl)methoxy)phenoxy)methyl)nicotinonitrile] | 0.21 to 10 | 
18 | Cc1c(COc2cc(OCc3cncc(C#N)c3)c(CN(C)CCC(N)=O)cc2Cl)cccc1-c1cccc(OCCCN(C)CCC(N)=O)c1C [Example 2266, 3-((3-(3′-((4-(((3-amino-3-oxopropyl)(methyl)amino)methyl)-2-chloro-5-((5-cyanopyridin-3-yl)methoxy)phenoxy)methyl)-2,2′-dimethylbiphenyl-3-yloxy)propyl)(methyl)amino)propanamide] | 0.21 to 10 | 
19 | CC(=O)N[C@@H]1CCN(CCCOc2cccc(-c3cccc(COc4cc(OCc5cncc(C#N)c5)c(CN5CC[C@@H](NC(C)=O)C5)cc4Cl)c3C)c2C)C1 [Example 2267, N-((3R)-1-(3-(3′-((4-(((R)-3-acetamidopyrrolidin-1-yl)methyl)-2-chloro-5-((5-cyanopyridin-3-yl)methoxy)phenoxy)methyl)-2,2′-dimethylbiphenyl-3-yloxy)propyl)pyrrolidin-3-yl)acetamide] | 0.21 to 10 | 
20 | Cc1c(COc2cc(OCc3cncc(C#N)c3)c(CN3CCCC[C@H]3C(=O)O)cc2Cl)cccc1-c1cccc(OCCCN2CCCC[C@H]2C(=O)O)c1C [Example 2268, (2S)-1-(3-(3′-((4-(((S)-2-carboxypiperidin-1-yl)methyl)-2-chloro-5-((5-cyanopyridin-3-yl)methoxy)phenoxy)methyl)-2,2′-dimethylbiphenyl-3-yloxy)propyl)piperidine-2-carboxylic Acid] | 0.21 to 10 | 
21 | CNC1CCN(CCCOc2cccc(-c3cccc(COc4cc(OCc5cncc(C#N)c5)c(CN5CCCC[C@H]5C(=O)O)cc4Cl)c3C)c2C)CC1 [Example 2269, (2S)-1-(5-chloro-2-((5-cyanopyridin-3-yl)methoxy)-4-((2,2′-dimethyl-3′-(3-(4-(methylamino)piperidin-1-yl)propoxy)biphenyl-3-yl)methoxy)benzyl)piperidine-2-carboxylic Acid] | 0.21 to 10 | 
